Reference: US7829296B2, “Kinesin polypeptides, polynucleotides encoding same and compositions and methods of using same” (Ramot at Tel-Aviv University Ltd., priority 2005, dated 2010)

Experiments:
ERK1/2 in MBA-15 cells [1] = assay: pERK1/2 in anti-MS-KIF18A immunoprecipitates (MS-KIF18A-ERα complex), Western blot; assay type: cell-based; settings: for ERK activation in anti-MS-KIF18A immunoprecipitate after pretreatment: then 17β-estrogen
Experimental: (§1) For immunoprecipitation (IP), anti-MS-KIF18A and protein-A sepharose beads (Sigma, USA) were added to lysates and samples were incubated overnight at 4° C. Immunocomplexes were precipitated at 16,000 g for 1 minute and washed 4 times with lyses buffer. The washed beads were re-suspended in Lamelli sample buffer and boiled for 3 minutes. The proteins were separated on 8% SDS-PAGE gel for 2 hours and transferred to nitrocellulose for 1.5 hours.
(§2) For Western blot, the membranes were blocked with 5% BSA in TBST (50 mM Tris, pH-7.5, 150 mM NaCl, 0.1% Tween-20, Sigma, USA) for 1 hour at RT or overnight and than incubated with anti-MS-KIF18A. The membranes were washed with TBST and incubated with goat anti-rabbit or goat anti-mouse conjugated to biotin (Dako, Denmark) for 40 minutes at RT and Extravidin-Peroxidase (Sigma, USA) for detection with chemiluminescent substrate (Pierce, USA).
(§3) Estrogen signaling, ERK1/2 pathway: MBA-15 cells were maintained in medium supplemented with 3% charcoal striped FCS for 48 hours prior to the start of the experiment. On the day of the experiment, the cells were pretreated with 25 μM MAPK inhibitor, PD98059 (Calbiochem, USA) and an estrogen antagonist ICI 182,780 10^−6M (Tocris, USA) for 45 minutes. 10^−8M 17β-estrogen (Sigma, USA) was added for five minutes. Cell lysates were used for immunoprecipitation and analyzed by Western blot.
(§4) Immunoprecipitation, Western blot, SDS-PADE gel: All experiments were performed as described in Example 1. Primary antibodies included anti-MS-KIF18A, anti-ER antibodies (Upstate Biotechnologies, USA) or SRA-1010 (Stressgen, Canada), anti-ERK1/2, pERK1/2 (Sigma, USA) or anti-His-tag (Santa Cruz Biotechnologies, USA). For detection a secondary antibody conjugated to biotin-extravidine-peroxidase and chemiluminescent substrate was used (Pierce, USA).

ERK1/2 in MBA-15 cells [2] = assay: Estrogen signaling, ERK1/2 pathway: Western blot for pERK1/2 on whole cell lysates; assay type: cell-based; settings: FIG. 16A; for 17βE2-induced increase of pERK1/2 after pretreatment: then 10^−8M 17β-estrogen five minutes
Experimental: Western blot analysis and Immunoprecipitation: Cells were harvested from cultures, washed twice with ice-cold PBS and collected in presence of protease inhibitors (Phenylmethylsulfonyl fluoride PMSF, 1 mM; 1-Chloro-3-tosylamido-4-phenyl-2-butanone, TPCK, 10 μg/ml; Aprotinin, 10 μg/ml (Sigma, USA) and phosphatase inhibitor cocktails I and II (Sigma, USA). Samples were spun down at 1500 rpm for 4 minutes and pellets were reconstituted in lyses buffer (50 mM Tris pH 7.5, 150 mM NaCl, 1% NP-40, and protease and phosphatase inhibitors, as above). Following a 20 minute incubation at 4° C., samples were centrifuged at 16,000 g for 5 minutes.
as §2, §3, §4

ERα 66 kDa = target: T1, ERα 66 kDa (Homo sapiens, UniProt P03372); assay: Co-immunoprecipitation of co-transfected His-MS-KIF18A and ERα 66 kDa in COS-7 cells; assay type: binding; settings: COS-7 cells co-transfected with His-MS-KIF18A and ERα 66 kDa, FIGS. 14A-B
T1 construct: expressed in transfected cells; host or cells: COS-7
T1 sequence (P03372 1-595): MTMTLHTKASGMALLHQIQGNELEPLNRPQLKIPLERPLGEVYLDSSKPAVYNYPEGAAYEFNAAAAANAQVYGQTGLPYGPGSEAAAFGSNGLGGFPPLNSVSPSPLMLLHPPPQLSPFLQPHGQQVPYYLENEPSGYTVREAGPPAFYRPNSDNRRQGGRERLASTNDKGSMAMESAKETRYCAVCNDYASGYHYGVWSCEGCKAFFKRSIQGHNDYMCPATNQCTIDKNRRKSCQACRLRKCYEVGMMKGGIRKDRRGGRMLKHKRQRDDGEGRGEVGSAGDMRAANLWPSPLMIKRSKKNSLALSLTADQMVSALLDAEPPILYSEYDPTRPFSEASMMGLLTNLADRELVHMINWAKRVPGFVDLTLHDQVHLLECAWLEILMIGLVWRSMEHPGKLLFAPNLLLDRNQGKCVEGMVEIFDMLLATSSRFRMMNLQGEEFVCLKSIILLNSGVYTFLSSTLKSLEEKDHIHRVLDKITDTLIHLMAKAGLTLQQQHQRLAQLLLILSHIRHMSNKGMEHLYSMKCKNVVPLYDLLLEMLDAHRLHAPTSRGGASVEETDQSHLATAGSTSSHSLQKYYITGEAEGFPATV
T1 sequence (Q8NI77 1-898 I735V partner): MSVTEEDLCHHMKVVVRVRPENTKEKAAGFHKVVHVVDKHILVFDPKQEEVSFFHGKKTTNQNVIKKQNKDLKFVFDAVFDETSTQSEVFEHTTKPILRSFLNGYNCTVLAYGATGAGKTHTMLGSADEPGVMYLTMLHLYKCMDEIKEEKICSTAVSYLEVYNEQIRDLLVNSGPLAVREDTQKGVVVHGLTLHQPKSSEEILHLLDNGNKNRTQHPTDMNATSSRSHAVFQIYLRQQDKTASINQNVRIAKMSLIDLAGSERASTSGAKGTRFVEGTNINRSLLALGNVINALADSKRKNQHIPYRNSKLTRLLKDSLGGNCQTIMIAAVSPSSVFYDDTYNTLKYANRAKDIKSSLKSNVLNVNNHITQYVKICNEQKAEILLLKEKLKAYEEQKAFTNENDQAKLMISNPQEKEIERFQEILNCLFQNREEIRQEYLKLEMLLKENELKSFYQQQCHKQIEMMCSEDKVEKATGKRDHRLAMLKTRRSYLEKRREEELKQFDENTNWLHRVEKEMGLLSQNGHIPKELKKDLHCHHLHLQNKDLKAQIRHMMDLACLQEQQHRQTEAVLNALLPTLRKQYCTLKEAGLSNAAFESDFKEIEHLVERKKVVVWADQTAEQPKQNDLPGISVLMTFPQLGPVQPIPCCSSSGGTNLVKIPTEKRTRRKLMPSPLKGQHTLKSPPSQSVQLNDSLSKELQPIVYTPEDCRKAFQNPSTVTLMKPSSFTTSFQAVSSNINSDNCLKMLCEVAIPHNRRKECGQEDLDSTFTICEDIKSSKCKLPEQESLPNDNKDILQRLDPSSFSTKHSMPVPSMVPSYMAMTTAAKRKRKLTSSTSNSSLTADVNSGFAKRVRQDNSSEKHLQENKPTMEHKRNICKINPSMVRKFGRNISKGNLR
Experimental: as §1, §2
as §4, with “(Pierce, USA). […]” for “(Pierce, USA).”

ERα = assay: Co-immunoprecipitation of endogenous MS-KIF18A and ERα in MBA-15 cells; assay type: binding; settings: MBA-15 cell lysates, antibodies directed against MS-KIF18A, FIG. 15
Experimental: as §1, §2, §4

Q: What does the source list for 17β-estrogen [17βE2]?
A: activated ERK in anti-MS-KIF18A immunoprecipitate following estrogen treatment (ERK1/2 in MBA-15 cells [1]; 10^−8M 17β-estrogen five minutes, FIG. 16D lane 4): increase in activated ERK; pERK1/2 following 17βE2 stimulation (ERK1/2 in MBA-15 cells [2]; 10^−8M 17β-estrogen for five minutes): increase

Q: C[C@]12CC[C@@H]3c4ccc(O)cc4C[C@@H](CCCCCCCCC[S+]([O-])CCCC(F)(F)C(F)(F)F)[C@H]3[C@@H]1CC[C@@H]2O (some centres unmarked) [ICI 182,780] was tested. Which “ERK activation in anti-MS-KIF18A immunoprecipitate after pretreatment” value (ERK1/2 in MBA-15 cells [1]; pretreated with ICI 182,780 10^−6M 45 minutes, FIG. 16D lane 3, FIG. 16E) did it give?
A: reduced ERK activation

Q: What about the “17βE2-induced increase of pERK1/2 after pretreatment” value (ERK1/2 in MBA-15 cells [2]; pretreated with ICI 182,780 10^−6M for 45 minutes) of the same molecule?
A: inhibited

Q: COc1cccc(-c2cc(=O)c3ccccc3o2)c1N [PD98059] was tested. Which “ERK activation in anti-MS-KIF18A immunoprecipitate after pretreatment” value (ERK1/2 in MBA-15 cells [1]; pretreated with 25 μM PD98059 45 minutes, FIG. 16D lane 2, FIG. 16E) did it give?
A: reduced ERK activation

Q: And the “17βE2-induced increase of pERK1/2 after pretreatment” value (ERK1/2 in MBA-15 cells [2]; pretreated with 25 μM PD98059 for 45 minutes)?
A: inhibited

B1: His-MS-KIF18A: His-tagged MS-KIF18A expressed from pcDNA3.1-His-C-MS-KIF18A in COS-7 cells (protein)
chain: MSVTEEDLCHHMKVVVRVRPENTKEKAAGFHKVVHVVDKHILVFDPKQEEVSFFHGKKTTNQNVIKKQNKDLKFVFDAVFDETSTQSEVFEHTTKPILRSFLNGYNCTVLAYGATGAGKTHTMLGSADEPGVMYLTMLHLYKCMDEIKEEKICSTAVSYLEVYNEQIRDLLVNSGPLAVREDTQKGVVVHGLTLHQPKSSEEILHLLDNGNKNRTQHPTDMNATSSRSHAVFQIYLRQQDKTASINQNVRIAKMSLIDLAGSERASTSGAKGTRFVEGTNINRSLLALGNVINALADSKRKNQHIPYRNSKLTRLLKDSLGGNCQTIMIAAVSPSSVFYDDTYNTLKYANRAKDIKSSLKSNVLNVNNHITQYVKICNEQKAEILLLKEKLKAYEEQKAFTNENDQAKLMISNPQEKEIERFQEILNCLFQNREEIRQEYLKLEMLLKENELKSFYQQQCHKQIEMMCSEDKVEKATGKRDHRLAMLKTRRSYLEKRREEELKQFDENTNWLHRVEKEMGLLSQNGHIPKELKKDLHCHHLHLQNKDLKAQIRHMMDLACLQEQQHRQTEAVLNALLPTLRKQYCTLKEAGLSNAAFESDFKEIEHLVERKKVVVWADQTAEQPKQNDLPGISVLMTFPQLGPVQPIPCCSSSGGTNLVKIPTEKRTRRKLMPSPLKGQHTLKSPPSQSVQLNDSLSKELQPIVYTPEDCRKAFQNPSTVTLMKPSSFTTSFQAVSSNINSDNCLKMLCEVAIPHNRRKECGQEDLDSTFTICEDIKSSKCKLPEQESLPNDNKDILQRLDPSSFSTKHSMPVPSMVPSYMAMTTAAKRKRKLTSSTSNSSLTADVNSGFAKRVRQDNSSEKHLQENKPTMEHKRNICKINPSMVRKFGRNISKGNLR
modifications: left off: small tags and cut ends
notes: His-tagged MS-KIF18A expressed from pcDNA3.1-His-C-MS-KIF18A in COS-7 cells
Q: How did the “interaction with ERα 66 kDa (pull-down by anti-MS-KIF18A and anti-His antibodies)” value (ERα 66 kDa) turn out when B1 was run?
A: interaction

B2: MS-KIF18A: novel kinesin KIF18A polypeptide of 898 amino acids expressed in mesenchymal stem cells, SEQ ID NO: 2 (protein, listed as Homo sapiens)
chain: MSVTEEDLCHHMKVVVRVRPENTKEKAAGFHKVVHVVDKHILVFDPKQEEVSFFHGKKTTNQNVIKKQNKDLKFVFDAVFDETSTQSEVFEHTTKPILRSFLNGYNCTVLAYGATGAGKTHTMLGSADEPGVMYLTMLHLYKCMDEIKEEKICSTAVSYLEVYNEQIRDLLVNSGPLAVREDTQKGVVVHGLTLHQPKSSEEILHLLDNGNKNRTQHPTDMNATSSRSHAVFQIYLRQQDKTASINQNVRIAKMSLIDLAGSERASTSGAKGTRFVEGTNINRSLLALGNVINALADSKRKNQHIPYRNSKLTRLLKDSLGGNCQTIMIAAVSPSSVFYDDTYNTLKYANRAKDIKSSLKSNVLNVNNHITQYVKICNEQKAEILLLKEKLKAYEEQKAFTNENDQAKLMISNPQEKEIERFQEILNCLFQNREEIRQEYLKLEMLLKENELKSFYQQQCHKQIEMMCSEDKVEKATGKRDHRLAMLKTRRSYLEKRREEELKQFDENTNWLHRVEKEMGLLSQNGHIPKELKKDLHCHHLHLQNKDLKAQIRHMMDLACLQEQQHRQTEAVLNALLPTLRKQYCTLKEAGLSNAAFESDFKEIEHLVERKKVVVWADQTAEQPKQNDLPGISVLMTFPQLGPVQPIPCCSSSGGTNLVKIPTEKRTRRKLMPSPLKGQHTLKSPPSQSVQLNDSLSKELQPIVYTPEDCRKAFQNPSTVTLMKPSSFTTSFQAVSSNINSDNCLKMLCEVAIPHNRRKECGQEDLDSTFTICEDIKSSKCKLPEQESLPNDNKDILQRLDPSSFSTKHSMPVPSMVPSYMAMTTAAKRKRKLTSSTSNSSLTADVNSGFAKRVRQDNSSEKHLQENKPTMEHKRNICKINPSMVRKFGRNISKGNLR
Q: With B2 as the molecule, how does the “association with endogenous ERα (co-immunoprecipitation)” value (ERα) read?
A: confirmed the association
